Our source for the EC50 values is patent US20240398812A1 (Caraway Therapeutics, Inc., priority 2021, published 2024).

By EC50 is commonly meant the concentration that produces a half-maximal response.

In one test the target is T1, TRPML3 (Homo sapiens, UniProt Q8TDD5).
T1 construct: expressed in transfected cells
T1 sequence (Q8TDD5 1-553): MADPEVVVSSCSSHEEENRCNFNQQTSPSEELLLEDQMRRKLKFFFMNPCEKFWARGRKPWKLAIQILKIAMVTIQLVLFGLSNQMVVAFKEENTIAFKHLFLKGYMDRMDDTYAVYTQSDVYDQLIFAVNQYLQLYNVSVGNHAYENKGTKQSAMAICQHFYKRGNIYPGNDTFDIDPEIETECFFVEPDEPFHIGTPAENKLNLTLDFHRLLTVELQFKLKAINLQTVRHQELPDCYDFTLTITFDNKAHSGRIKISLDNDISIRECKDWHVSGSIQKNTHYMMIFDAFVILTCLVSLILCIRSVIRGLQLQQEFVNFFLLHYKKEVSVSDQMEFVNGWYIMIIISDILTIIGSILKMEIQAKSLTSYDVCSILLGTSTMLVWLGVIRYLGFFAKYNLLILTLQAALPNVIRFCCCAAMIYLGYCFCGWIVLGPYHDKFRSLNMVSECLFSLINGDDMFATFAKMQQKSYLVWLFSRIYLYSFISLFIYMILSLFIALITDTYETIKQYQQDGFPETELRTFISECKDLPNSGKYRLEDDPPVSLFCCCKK
As to the kind of experiment: Fluorescent TRPML3 assay (as for TRPML1). The note with it: Table 3, compounds 201-283. Type of test: cell-based. In outline: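 HEK-293 Trex cells with tet-inducible (0.5 ug/mL doxycycline, overnight) surface-targeted mutant channel, Fluo4-AM loaded, suspended in Ringer's with 10 mM calcium. Compounds tested 20 µM to 6 nM final, half-log steps, triplicate; fluorescence at ex 480/em 540 nm. EC50 by non-linear regression of percent activity versus plate controls.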

A further test concerns the target human TRPML1 (Homo sapiens, UniProt Q9GZU1). Briefly: Fluorescent TRPML1 assay (Fluo4-AM calcium fluorescence, HEK-293 Trex cells). Type of test: cell-based. The note with it: Table 3, compounds 201-283. In short, it runs like this: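 Tet-inducible HEK-293 Trex cells stably expressing surface-targeted mutant human TRPML1, induced with 0.5 ug/mL doxycycline overnight, loaded with Fluo4-AM and suspended in Ringer's with 10 mM calcium. Compounds tested from 20 μM to 6 nM final, half-log steps, in triplicate; fluorescence (ex 480/em 540) normalised to plate controls, EC50 by non-linear regression.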

Chain of human TRPML1 (Q9GZU1 whole entry L15A/L16A/L577A/L578A, form open): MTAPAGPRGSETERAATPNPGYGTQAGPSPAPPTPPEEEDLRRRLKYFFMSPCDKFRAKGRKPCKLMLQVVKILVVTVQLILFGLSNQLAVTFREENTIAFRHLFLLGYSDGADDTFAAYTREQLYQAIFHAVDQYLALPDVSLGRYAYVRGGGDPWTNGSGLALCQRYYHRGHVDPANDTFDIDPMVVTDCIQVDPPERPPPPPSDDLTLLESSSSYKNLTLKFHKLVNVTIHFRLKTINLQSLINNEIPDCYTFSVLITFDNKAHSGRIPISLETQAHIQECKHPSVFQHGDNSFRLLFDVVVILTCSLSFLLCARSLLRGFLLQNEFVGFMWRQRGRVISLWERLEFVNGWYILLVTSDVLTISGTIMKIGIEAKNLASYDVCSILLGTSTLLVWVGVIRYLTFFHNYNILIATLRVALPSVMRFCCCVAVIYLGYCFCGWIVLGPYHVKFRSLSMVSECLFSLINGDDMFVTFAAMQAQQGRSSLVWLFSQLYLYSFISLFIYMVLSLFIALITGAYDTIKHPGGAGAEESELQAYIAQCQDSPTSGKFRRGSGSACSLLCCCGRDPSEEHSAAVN

Turning to `C[C@@H]1CN(c2ncnc3c2c(C(F)(F)F)cn3-c2cncc(C#N)c2)[C@@H](C)CN1C(=O)C(C)(C)C` [Compound 224, 5-(4-((2S,5R)-2,5-dimethyl-4-pivaloylpiperazin-1-yl)-5-(trifluoromethyl)-7H-pyrrolo[2,3-d]pyrimidin-7-yl)nicotinonitrile], the EC50 on TRPML3 was 500 to 2000 nM; on human TRPML1, less than 100 nM.
For `C[C@@H]1CN(c2ncnc3c2c(C(F)(F)F)cn3-c2cc(F)cc(F)c2)[C@@H](C)CN1C(=O)C(C)(C)C` [Compound 225, 1-((2R,5S)-4-(7-(3,5-difluorophenyl)-5-(trifluoromethyl)-7H-pyrrolo[2,3-d]pyrimidin-4-yl)-2,5-dimethylpiperazin-1-yl)-2,2-dimethylpropan-1-one], in that order: 100 to 500 nM and less than 100 nM.
In the case of `C[C@@H]1CN(c2nccc3c2c(N2CCC2)cn3-c2cccc(F)c2)[C@@H](C)CN1C(=O)C(C)(C)C` [Compound 226, 1-((2R,5S)-4-(3-(azetidin-1-yl)-1-(3-fluorophenyl)-1H-pyrrolo[3,2-c]pyridin-4-yl)-2,5-dimethylpiperazin-1-yl)-2,2-dimethylpropan-1-one], the EC50 at TRPML3 and on human TRPML1 was less than 100 nM in each case.
For the compound `C[C@H]1CN(C(=O)C(C)(C)C)CCN1c1nccc2c1c(N1CCC1)cn2-c1cccc(F)c1` [Compound 227, (S)-1-(4-(3-(azetidin-1-yl)-1-(3-fluorophenyl)-1H-pyrrolo[3,2-c]pyridin-4-yl)-3-methylpiperazin-1-yl)-2,2-dimethylpropan-1-one], the EC50 at TRPML3 and on human TRPML1 was less than 100 nM each time.
On to `C[C@H]1CN(C(=O)C(C)(C)C)CCN1c1nccc2c1c(C1CC1)cn2-c1cccc(F)c1` [Compound 228, (S)-1-(4-(3-cyclopropyl-1-(3-fluorophenyl)-1H-pyrrolo[3,2-c]pyridin-4-yl)-3-methylpiperazin-1-yl)-2,2-dimethylpropan-1-one], for which the EC50 on TRPML3 and on human TRPML1 was less than 100 nM in each case.
With `C[C@@H]1CN(c2ncnc3c2c(C2CCC2)cn3-c2cc(C#N)ccn2)[C@@H](C)CN1C(=O)C1(F)CC1` [Compound 236, 2-(5-cyclobutyl-4-((2S,5R)-4-(1-fluorocyclopropane-1-carbonyl)-2,5-dimethylpiperazin-1-yl)-7H-pyrrolo[2,3-d]pyrimidin-7-yl)isonicotinonitrile], the EC50 on TRPML3 and at human TRPML1 was less than 100 nM each time.
As for `COC(C)(C)C(=O)N1CCN(c2ncnc3c2c(C2CC2)cn3-c2cc(C#N)ccn2)[C@@H](C)C1` [Compound 241, (S)-2-(5-cyclopropyl-4-(4-(2-methoxy-2-methylpropanoyl)-2-methylpiperazin-1-yl)-7H-pyrrolo[2,3-d]pyrimidin-7-yl)isonicotinonitrile], the EC50 on TRPML3 and on human TRPML1 was less than 100 nM each time.
Turning to `COC1(C(=O)N2CCN(c3ncnc4c3c(-c3ccccc3F)cn4-c3cc(C#N)ccn3)[C@@H](C)C2)CC1` [Compound 243, (S)-2-(5-(2-fluorophenyl)-4-(4-(1-methoxycyclopropane-1-carbonyl)-2-methylpiperazin-1-yl)-7H-pyrrolo[2,3-d]pyrimidin-7-yl)isonicotinonitrile], the EC50 at TRPML3 is 100 to 500 nM; on human TRPML1, less than 100 nM.
For `Cc1cn(-c2cc(F)ccn2)c2ncnc(N3C[C@@H](C)N(C(=O)C(C)(C)C)C[C@@H]3C)c12` [Compound 244, 1-((2R,5S)-4-(7-(4-fluoropyridin-2-yl)-5-methyl-7H-pyrrolo[2,3-d]pyrimidin-4-yl)-2,5-dimethylpiperazin-1-yl)-2,2-dimethylpropan-1-one], in that order: 500 to 2000 nM and less than 100 nM.
On the same counts, the results for `Cc1cn(-c2cc(C(F)(F)F)ccn2)c2ncnc(N3C[C@@H](C)N(C(=O)C(C)(C)C)C[C@@H]3C)c12` [Compound 245, 1-((2R,5S)-2,5-dimethyl-4-(5-methyl-7-(4-(trifluoromethyl)pyridin-2-yl)-7H-pyrrolo[2,3-d]pyrimidin-4-yl)piperazin-1-yl)-2,2-dimethylpropan-1-one] are 100 to 500 nM and less than 100 nM.
For `CC(C)C(=O)N1C[C@H](C)N(c2ncnc3c2c(C2CCC2)cn3-c2cccc(F)c2)C[C@H]1C` [Compound 248, 1-((2R,5S)-4-(5-cyclobutyl-7-(3-fluorophenyl)-7H-pyrrolo[2,3-d]pyrimidin-4-yl)-2,5-dimethylpiperazin-1-yl)-2-methylpropan-1-one], in that order: more than 2000 nM and more than 2000 nM.
As to `C[C@@H]1CN(c2ncnc3c2c(C2CCC2)cn3-c2cccc(F)c2)[C@@H](C)CN1C(=O)C1(F)CC1` [Compound 249, ((2R,5S)-4-(5-cyclobutyl-7-(3-fluorophenyl)-7H-pyrrolo[2,3-d]pyrimidin-4-yl)-2,5-dimethylpiperazin-1-yl)(1-fluorocyclopropyl)methanone], the EC50 at TRPML3 lay within 500 to 2000 nM; on human TRPML1 it was 100 to 500 nM.
Turning to `C[C@@H]1CN(c2ncnc3c2c(C2CCC2)cn3-c2cccc(Cl)c2)[C@@H](C)CN1C(=O)C1(F)CC1` [Compound 254, ((2R,5S)-4-(7-(3-chlorophenyl)-5-cyclobutyl-7H-pyrrolo[2,3-d]pyrimidin-4-yl)-2,5-dimethylpiperazin-1-yl)(1-fluorocyclopropyl)methanone], the EC50 at TRPML3 and at human TRPML1 was 500 to 2000 nM in each case.
On to `CC(C)C(=O)N1CCN(c2ncnc3c2c(N2CCC2)cn3-c2cc(C#N)ccn2)C[C@H]1C` [Compound 273, (R)-2-(5-(azetidin-1-yl)-4-(4-isobutyryl-3-methylpiperazin-1-yl)-7H-pyrrolo[2,3-d]pyrimidin-7-yl)isonicotinonitrile], for which the EC50 at TRPML3 and at human TRPML1 was less than 100 nM in each case.
`CCCC(=O)N1CCN(c2ncnc3c2c(N2CCC2)cn3-c2cc(C#N)ccn2)C[C@H]1C` [Compound 274, (R)-2-(5-(azetidin-1-yl)-4-(4-butyryl-3-methylpiperazin-1-yl)-7H-pyrrolo[2,3-d]pyrimidin-7-yl)isonicotinonitrile]: the EC50 at TRPML3 and at human TRPML1 was less than 100 nM throughout.
Take `CC(C)C(=O)N1C[C@H](C)N(c2ncnc3c2c(N2CCC2)cn3-c2cc(C#N)ccn2)C[C@H]1C` [Compound 275, 2-(5-(azetidin-1-yl)-4-((2S,5R)-4-isobutyryl-2,5-dimethylpiperazin-1-yl)-7H-pyrrolo[2,3-d]pyrimidin-7-yl)isonicotinonitrile]: the figures for the EC50 at TRPML3 and on human TRPML1 were 100 to 500 nM and less than 100 nM, respectively.
